Reference: patent US12551536B2, “Semaglutide in medical therapy” (Novo Nordisk A/S, priority 2017, dated 2026)

What was measured:
[1] = 52-week clinical trial in obese subjects without diabetes mellitus: gastrointestinal adverse events; format: in vivo, human; conditions: Lira 3.0 mg once daily s.c., on-treatment
Description: This trial was designed as a 52-week, randomised, double-blind, placebo-controlled, sixteen-armed, parallel group, multi-centre, multinational trial comparing once-daily subcutaneous administration of semaglutide in five different doses (ranging from 0.05 mg/day to 0.4 mg/day) with placebo in obese subjects without diabetes mellitus. […] The trial was double-blinded between active and placebo treatment. To ensure a sufficiently large sample of men, no more than 70% of the trial population was allowed to be women and the randomisation was stratified according to sex. Subjects were randomised in a balanced manner (6:1 active:placebo).
The primary endpoint was relative change from baseline in body weight (%) at 52 weeks. Key secondary endpoints included proportion of subjects with weight loss of ≥5% or ≥10% of baseline body weight at 52 weeks as well as change in body weight from baseline to 52 weeks. Supportive secondary safety endpoints also included gastrointestinal (GI) adverse events (i.e. nausea, vomiting, diarrhoea and constipation). During each site visit the individual subject was asked via open questions if they had experienced any medical problems since the last visit. All medical problems either observed by the site staff or the subject was reported as an adverse event and evaluated for severity and causality by the investigator. For this trial the subjects had site visits every 2 weeks for the first 20 weeks of the trial and afterwards site visits was performed every 4 weeks.
Subjects in all treatment arms including placebo received nutritional counselling and a calorie-reduced diet by a dietician or equivalent qualified delegate as well as physical activity counselling by a qualified person on a monthly basis beginning at the randomisation visit. The trial population consisted of a total of 957 subjects were randomised. A total of 777 subjects (81.2%) completed 52 weeks of treatment; 180 (18.8%) discontinued treatment prematurely with no obvious dose-dependent trend. Key inclusion criteria for this trial were: Male or female, age ≥18 years at the time of signing inform consent; body mass index (BMI)≥30.0 kg/m2 at the screening visit; and at least one unsuccessful weight loss attempt per investigator judgement. Key exclusion criteria for this trial were: A HbA1c≥6.5% at screening or diagnosed with type 1 or type 2 diabetes mellitus; Treatment with glucose lowering agent(s) within 90 days before screening; Screening calcitonin ≥50 ng/L (pg/mL); Personal or family history of medullary thyroid carcinoma or multiple endocrine neoplasia syndrome type 2; History of pancreatitis (acute or chronic); Obesity induced by endocrine disorders (e.g. Cushing Syndrome); Treatment with any medication within 90 days before screening that based on investigator's judgement may cause significant weight change; Previous surgical treatment for obesity (liposuction and/or abdominoplasty performed >1 year before screening is allowed); History of major depressive disorder within 2 years before randomisation; Any lifetime history of a suicidal attempt; and Female who is pregnant, breast-feeding or intends to become pregnant or is of childbearing potential and not using an adequate contraceptive method (adequate contraceptive measures as required by local regulation or practice).

[2] = 26-week clinical trial in adult patients with T2D: gastrointestinal adverse events incl. nausea; format: in vivo, human; conditions: on-treatment
Description: A 26-week, randomized, double-blind clinical trial was carried out with adult patients with T2D, HbA1c 7.0-10.0% (53-86 mmol/mol), and body mass index 24.0-40.0 kg/m^2 who were treated with diet and exercise±metformin. […] The primary endpoint was change in HbA1c from baseline to week 26. Key exclusion criteria were a history of chronic or idiopathic acute pancreatitis and moderate-to-severe renal impairment (estimated glomerular filtration rate <60 mL/min/1.73 m^2).
Trial drug administration: Following a 2-week screening period, patients received trial medication for 26 weeks, followed by a 7-week follow-up period. […] The trial was double blinded within (but not between) each dose level of semaglutide, liraglutide and placebo, as treatment was volume matched.

[3] = Lira 0.3 mg once daily s.c., N 64
[4] = Lira 0.6 mg once daily s.c., N 64
[5] = Lira 1.2 mg once daily s.c., N 64
[6] = Lira 1.8 mg once daily s.c., N 65

## CCCCCCCCCCCCCCCC(=O)N[C@@H](CCC(=O)NCCCC[C@H](NC(=O)[C@H](C)NC(=O)[C@H](C)NC(=O)[C@H](CCC(N)=O)NC(=O)CNC(=O)[C@H](CCC(=O)O)NC(=O)[C@H](CC(C)C)NC(=O)[C@H](Cc1ccc(O)cc1)NC(=O)[C@H](CO)NC(=O)[C@H](CO)NC(=O)[C@@H](NC(=O)[C@H](CC(=O)O)NC(=O)[C@H](CO)NC(=O)[C@@H](NC(=O)[C@H](Cc1ccccc1)NC(=O)[C@@H](NC(=O)CNC(=O)[C@H](CCC(=O)O)NC(=O)[C@H](C)NC(=O)[C@@H](N)Cc1cnc[nH]1)[C@@H](C)O)[C@@H](C)O)C(C)C)C(=O)N[C@@H](CCC(=O)O)C(=O)N[C@@H](Cc1ccccc1)C(=O)N[C@H](C(=O)N[C@@H](C)C(=O)N[C@@H](Cc1c[nH]c2ccccc12)C(=O)N[C@@H](CC(C)C)C(=O)N[C@H](C(=O)N[C@@H](CCCNC(=N)N)C(=O)NCC(=O)N[C@@H](CCCNC(=N)N)C(=O)NCC(=O)O)C(C)C)[C@@H](C)CC)C(=O)O [Lira, liraglutide, reference compound]
[1]
  Gastrointestinal adverse events, Observed data, % (percentage of subjects with at least one event): 74.8%
[1]; observed data
  Nausea, % (percentage of subjects experiencing at least one event): 44.7%
  Nausea, E (number of events): 89
[1]; observed data, N 103
  Nausea, Ne (number of subjects experiencing at least one event): 46
[1]; N 103
  Gastrointestinal adverse events, Observed data, Ne (number of subjects experiencing at least one event): 77
[2]; Lira 0.3 mg once daily s.c.
  Gastrointestinal adverse events, % (percentage of patients experiencing at least one event): 21.9%
  Gastrointestinal adverse events, E (number of events): 25
  Nausea, % (percentage of patients experiencing at least one event): 9.4%
  Nausea, E (number of events): 7
[2]; [3]
  Gastrointestinal adverse events, Ne (number of patients experiencing at least one event): 14
  Nausea, Ne (number of patients experiencing at least one event): 6
[2]; Lira 0.6 mg once daily s.c.
  Gastrointestinal adverse events, % (percentage of patients experiencing at least one event): 29.7%
  Gastrointestinal adverse events, E (number of events): 62
  Nausea, % (percentage of patients experiencing at least one event): 10.9%
  Nausea, E (number of events): 11
[2]; [4]
  Gastrointestinal adverse events, Ne (number of patients experiencing at least one event): 19
  Nausea, Ne (number of patients experiencing at least one event): 7
[2]; Lira 1.2 mg once daily s.c.
  Gastrointestinal adverse events, % (percentage of patients experiencing at least one event): 31.3%
  Gastrointestinal adverse events, E (number of events): 40
  Nausea, % (percentage of patients experiencing at least one event): 10.9%
  Nausea, E (number of events): 11
[2]; [5]
  Gastrointestinal adverse events, Ne (number of patients experiencing at least one event): 20
  Nausea, Ne (number of patients experiencing at least one event): 7
[2]; Lira 1.8 mg once daily s.c.
  Gastrointestinal adverse events, % (percentage of patients experiencing at least one event): 41.5%
  Gastrointestinal adverse events, E (number of events): 81
  Nausea, % (percentage of patients experiencing at least one event): 20.0%
  Nausea, E (number of events): 18
[2]; [6]
  Gastrointestinal adverse events, Ne (number of patients experiencing at least one event): 27
  Nausea, Ne (number of patients experiencing at least one event): 13
